Reference: EP0394553A2, “Use of fluorine containing pyridone carboxylic acid derivatives for preparing a medicament for the treatment of HIV infections” (DAIICHI PHARMACEUTICAL CO., LTD., priority 1989, dated 1990)

Tested on: HIV (LAV 1)
Assay: microbe, parasite or virus in culture
Experimental: Human T cell-derived, T4 antigen-positive CEM cells (provided by the Institut Pasteur, France) were used as host cells of HIV. Cell culture was carried out in a carbon dioxide-containing atmosphere in an incubator maintained at 37°C according to a conventional method [cf. […] The culture supernatant (5×10⁶ TCID₅₀/ml) obtained by subjecting CEM cells to HIV (LAV 1) infection and stored at -70°C was used as the HIV source.
The medium for cell culture (10 ml) placed in a plastic culture flask (25 cm²) was inoculated with CEM cells at a cell density of 2.5×10⁵ cells/ml. After 3 days of incubation, the culture was transferred to a 15-ml centrifuge tube and subjected to centrifugation at 1,000 revolutions per minute for 5 minutes for sedimentation of cells and removal of the culture medium.
The stock viral suspension was added to the host cells thus prepared to an MOI of 0.05 and the mixture was maintained at 37°C for 90 minutes with stirring at 30-minute intervals for viral adsorption. The medium was added to HIV-infected cells to a cell density of 5.0×10⁵ cells/ml to give an HIV-infected cell suspension.
A mixture (1.0 ml) of the three constituents mentioned below was added to each well of a 24-well plastic culture plate and the test substance final concentration was adjusted to 10 mcg/ml, 5 mcg/ml, 2.5 mcg/ml or 1 mcg/ml. The "no addition" wells (0 mcg/ml) served as controls.
After 4 days of incubation following viral infection, the cells in each well on the 24-well culture plate were suspended uniformly by pipetting and a 0.5-ml portion of the suspension was separated. A 2.0-ml portion of test substance-free fresh medium was added to the remaining 0.5-ml portion of the cell suspension, followed by incubation.
Seven days after viral infection, pipetting was performed to give a uniform cell suspension in each well and a 0.5-ml portion of the suspension was separated.
Incubation was continued and, 10 days after viral infection, a uniform cell suspension was produced in the same manner in each well and a 1.5-ml portion thereof was separated. A fresh 2.0-ml portion of the medium free of (or containing) the test substance was added to the well, followed by further incubation.
Fifteen days after viral infection, the cells in each well were suspended uniformly in the same manner in the medium and a 2.0-ml portion of the suspension was separated. A fresh 2.0-ml portion of the medium free of (or containing) the test substance was added to the remaining 0.5 ml of the cell suspension and incubation was continued.
Medium exchange was performed in the same manner 20 days and 25 days after viral infection.
The cell suspensions collected 4 days, 7 days, 10 days, 20 days and 30 days after viral infection were tested for viable cell count and viable cell percentage by trypan blue staining. At the same time, viral antigen-positive cell percentage determination was carried out by immunofluorescence using an anti-HIV antiserum isolated from a healthy carrier of HIV.
The numerical values given each is the mean for the respective two wells on the culture plate. The viable cell count is the total cell count minus the count of dead cells stained with trypan blue. The viable cell percentage is the percentage of viable cells among all the cells including dead cells. The viral antigen-positive cell percentage is the percentage of cells indicating antigen expression as found among all the cells including dead cells.

[1] = 1 mcg/ml, 4-day addition, after 4 days
[2] = 1 mcg/ml, 4-day addition, after 7 days
[3] = 1 mcg/ml, 4-day addition, after 10 days
[4] = 1 mcg/ml, 4-day addition, after 20 days
[5] = 1 mcg/ml, continuous addition, after 4 days
[6] = 1 mcg/ml, continuous addition, after 7 days
[7] = 1 mcg/ml, continuous addition, after 10 days
[8] = 2.5 mcg/ml, 4-day addition, after 4 days
[9] = 2.5 mcg/ml, 4-day addition, after 7 days
[10] = 2.5 mcg/ml, 4-day addition, after 10 days
[11] = 2.5 mcg/ml, 4-day addition, after 20 days
[12] = 2.5 mcg/ml, 4-day addition, after 30 days
[13] = 2.5 mcg/ml, continuous addition, after 4 days
[14] = 2.5 mcg/ml, continuous addition, after 7 days
[15] = 2.5 mcg/ml, continuous addition, after 10 days
[16] = 2.5 mcg/ml, continuous addition, after 20 days
[17] = 2.5 mcg/ml, continuous addition, after 30 days
[18] = 5 mcg/ml, 4-day addition, after 4 days
[19] = 5 mcg/ml, 4-day addition, after 7 days
[20] = 5 mcg/ml, 4-day addition, after 10 days
[21] = 5 mcg/ml, 4-day addition, after 20 days
[22] = 5 mcg/ml, 4-day addition, after 30 days
[23] = 5 mcg/ml, continuous addition, after 4 days
[24] = 5 mcg/ml, continuous addition, after 7 days
[25] = 5 mcg/ml, continuous addition, after 10 days
[26] = 5 mcg/ml, continuous addition, after 20 days
[27] = 5 mcg/ml, continuous addition, after 30 days
[28] = 10 mcg/ml, 4-day addition, after 4 days

Structure (SMILES): CC1COc2c(N3CCN(C)CC3)c(F)cc3c(=O)c(C(=O)O)cn1c23 (racemic) [OFLX, (±)-9-fluoro-3-methyl-10-(4-methyl-1-piperazinyl)-7-oxo-2,3-dihydro-7H-pyrido[1,2,3-de][1,4]benzoxazine-6-carboxylic acid]
- Viable cell count [1]: 260 × 10⁴ cells/ml
- Viral antigen-positive cell percentage [1]: 88%
- Viable cell count [2]: 43 × 10⁴ cells/ml
- Viral antigen-positive cell percentage [2]: 80%
- Viable cell count [3]: 13 × 10⁴ cells/ml
- Viral antigen-positive cell percentage [3]: 77%
- Viable cell count [4]: 34 × 10⁴ cells/ml
- Viral antigen-positive cell percentage [4]: 16%
- Viable cell count (1 mcg/ml, 4-day addition, after 30 days): 10 × 10⁴ cells/ml
- Viable cell count [5]: 300 × 10⁴ cells/ml
- Viral antigen-positive cell percentage [5]: 82%
- Viable cell count [6]: 39 × 10⁴ cells/ml
- Viral antigen-positive cell percentage [6]: 78%
- Viable cell count [7]: 46 × 10⁴ cells/ml
- Viral antigen-positive cell percentage [7]: 85%
- Viable cell count (1 mcg/ml, continuous addition, after 20 days): 15 × 10⁴ cells/ml
- Viable cell count (1 mcg/ml, continuous addition, after 30 days): 11 × 10⁴ cells/ml
- Viable cell count [8]: 260 × 10⁴ cells/ml
- Viral antigen-positive cell percentage [8]: 80%
- Viable cell count [9]: 58 × 10⁴ cells/ml
- Viral antigen-positive cell percentage [9]: 67%
- Viable cell count [10]: 83 × 10⁴ cells/ml
- Viral antigen-positive cell percentage [10]: 49%
- Viable cell count [11]: 300 × 10⁴ cells/ml
- Viral antigen-positive cell percentage [11]: 4%
- Viable cell count [12]: 300 × 10⁴ cells/ml
- Viral antigen-positive cell percentage [12]: 6%
- Viable cell count [13]: 260 × 10⁴ cells/ml
- Viral antigen-positive cell percentage [13]: 83%
- Viable cell count [14]: 59 × 10⁴ cells/ml
- Viral antigen-positive cell percentage [14]: 62%
- Viable cell count [15]: 110 × 10⁴ cells/ml
- Viral antigen-positive cell percentage [15]: 38%
- Viable cell count [16]: 220 × 10⁴ cells/ml
- Viral antigen-positive cell percentage [16]: 17%
- Viable cell count [17]: 360 × 10⁴ cells/ml
- Viral antigen-positive cell percentage [17]: 10%
- Viable cell count [18]: 250 × 10⁴ cells/ml
- Viral antigen-positive cell percentage [18]: 82%
- Viable cell count [19]: 60 × 10⁴ cells/ml
- Viral antigen-positive cell percentage [19]: 50%
- Viable cell count [20]: 170 × 10⁴ cells/ml
- Viral antigen-positive cell percentage [20]: 33%
- Viable cell count [21]: 320 × 10⁴ cells/ml
- Viral antigen-positive cell percentage [21]: 5%
- Viable cell count [22]: 330 × 10⁴ cells/ml
- Viral antigen-positive cell percentage [22]: 4%
- Viable cell count [23]: 340 × 10⁴ cells/ml
- Viral antigen-positive cell percentage [23]: 75%
- Viable cell count [24]: 58 × 10⁴ cells/ml
- Viral antigen-positive cell percentage [24]: 76%
- Viable cell count [25]: 160 × 10⁴ cells/ml
- Viral antigen-positive cell percentage [25]: 40%
- Viable cell count [26]: 300 × 10⁴ cells/ml
- Viral antigen-positive cell percentage [26]: 11%
- Viable cell count [27]: 290 × 10⁴ cells/ml
- Viral antigen-positive cell percentage [27]: 2%
- Viable cell count [28]: 260 × 10⁴ cells/ml
- Viral antigen-positive cell percentage [28]: 74%
